Test results reported in US20250122234A1, “NOVEL CRYSTALLINE FORM OF [(2R,3S,4R,5R)-3,4-DIHYDROXY-5-[4-(HYDROXYAMINO)-2- OXOPYRIMIDIN-1-YL]OXOLAN-2-YL]METHYL-2-METHYLPROPANOATE” (priority 2021, published 2025).

Columns and labels:
influenza A viruses = system: influenza A viruses; parameters: species or system mice; details: mouse, in vivo, po
[1] = hygroscopicity, weight increase on exposure to water vapor in climatic chamber; assay type: physicochemical; details: 24 hours, temperature (25±1)°C, relative humidity (80±2)%, 200 mg sample
[2] = study of physicochemical and technological properties

Row | SMILES | clinical symptoms of the disease (influenza A viruses) | titer of the virus in the nasal wash and fever (influenza A viruses) | X (%), increase in the weight of the test substance [1] [%] | solubility [2] | stability [2] | virus titer in the nasal wash, less than in groups 2 and 3 (crystal forms I, II) (influenza A viruses)
1 | CC(C)C(=O)OC[C@H]1O[C@@H](n2ccc(NO)nc2=O)[C@H](O)[C@@H]1O [Polymorph I, [(2R,3S,4R,5R)-3,4-dihydroxy-5-[4-(hydroxyamino)-2-oxopyrimidin-1-yl]oxolan-2-yl]methyl-2-methylpropanoate] | some animals showed a decrease in body weight and shortness of breath | a decrease in the titer of the virus in the nasal wash and a decrease in fever | 4.1 | – | – | –
2 | CC(C)C(=O)OC[C@H]1O[C@@H](n2ccc(NO)nc2=O)[C@H](O)[C@@H]1O [[(2R,3S,4R,5R)-3,4-dihydroxy-5-[4-(hydroxyamino)-2-oxopyrimidin-1-yl]oxolan-2-yl]methyl-2-methylpropanoate] | clinical symptoms of the disease were practically not recorded | a decrease in the titer of the virus in the nasal wash and a decrease in fever | 0.5 | higher solubility | improving the stability | approximately 20%
3 | CC(C)C(=O)OC[C@H]1O[C@@H](n2ccc(NO)nc2=O)[C@H](O)[C@@H]1O [Polymorph II, [(2R,3S,4R,5R)-3,4-dihydroxy-5-[4-(hydroxyamino)-2-oxopyrimidin-1-yl]oxolan-2-yl]methyl-2-methylpropanoate] | some animals showed a decrease in body weight and shortness of breath | a decrease in the titer of the virus in the nasal wash and a decrease in fever | 5.2 | – | – | –
